# Reference: patent US10266526B2, “Substituted 1,2,3-triazoles as SMYD inhibitors for treating cancer” (EPIZYME, INC., priority 2014, dated 2019)
# Biological target: SMYD3 (Homo sapiens (Human), UniProt Q9H7B4)
# Assay: SMYD3 biochemical assay (SMYD3 enzyme assay on MEKK2 protein substrate, 3H-SAM scintillation proximity assay)
# Settings: read-out: SMYD3 Biochem IC50
# Outline: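 Native full-length human SMYD3, expressed in E. coli, was preincubated with compound for 30 min at room temperature in 25 mM Tris-Cl pH 8.0, 1 mM TCEP, 0.005% BSG and 0.005% Tween 20. ³H-SAM plus GST-MEKK2 then started the reaction. It was stopped with unlabeled SAM (100 uM final), and methylated MEKK2 was read by SPA.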
# SMYD3, sequence (Q9H7B4 whole entry): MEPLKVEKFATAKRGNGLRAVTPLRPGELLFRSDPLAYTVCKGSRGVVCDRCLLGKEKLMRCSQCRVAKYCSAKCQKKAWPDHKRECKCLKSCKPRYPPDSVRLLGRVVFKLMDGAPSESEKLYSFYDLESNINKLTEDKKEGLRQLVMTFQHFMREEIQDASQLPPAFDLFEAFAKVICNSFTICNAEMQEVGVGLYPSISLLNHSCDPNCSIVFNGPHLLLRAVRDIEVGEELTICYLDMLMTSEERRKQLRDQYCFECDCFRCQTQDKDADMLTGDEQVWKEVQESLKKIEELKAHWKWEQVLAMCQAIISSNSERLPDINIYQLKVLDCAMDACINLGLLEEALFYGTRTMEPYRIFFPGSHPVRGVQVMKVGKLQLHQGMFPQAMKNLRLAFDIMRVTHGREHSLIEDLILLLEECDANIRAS
row,IC50,SMILES
1,> 100 µM,"N[C@H]1CC[C@H](NC(=O)c2cncs2)CC1 [compound 359, N-((1r,4r)-4-aminocyclohexyl)thiazole-5-carboxamide]"
2,> 100 µM,"N[C@H]1CC[C@H](NC(=O)Cc2cc(F)cc(F)c2)CC1 [compound 362, N-((1r,4r)-4-aminocyclohexyl)-2-(3,5-difluorophenyl)acetamide]"
3,> 100 µM,"NCCC(=O)N[C@H]1CC[C@H](NC(=O)Cc2cccnc2)CC1 [compound 363, 3-amino-N-((1r,4r)-4-(2-(pyridin-3-yl)acetamido)cyclohexyl)propanamide]"
4,> 100 µM,"N[C@H]1CC[C@H](NC(=O)Cc2cncnc2)CC1 [compound 365, N-((1r,4r)-4-aminocyclohexyl)-2-(pyrimidin-5-yl)acetamide]"
5,> 100 µM,"N[C@H]1CC[C@H](NC(=O)c2nc3ccccc3s2)CC1 [compound 367, N-((1r,4r)-4-aminocyclohexyl)benzo[d]thiazole-2-carboxamide]"
6,> 100 µM,"COc1cccc2[nH]cc(C(=O)N[C@H]3CC[C@H](NC(=O)CCN)CC3)c12 [compound 371, N-((1r,4r)-4-(3-aminopropanamido)cyclohexyl)-4-methoxy-1H-indole-3-carboxamide]"
7,86.6 µM,"NCCC(=O)N[C@H]1CC[C@H](NC(=O)c2nc3ccccc3[nH]2)CC1 [compound 374, N-((1r,4r)-4-(3-aminopropanamido)cyclohexyl)-1H-benzo[d]imidazole-2-carboxamide]"
8,> 100 µM,"NCCC(=O)N[C@H]1CC[C@H](NC(=O)CCCn2ccnc2)CC1 [compound 375, N-((1r,4r)-4-(3-aminopropanamido)cyclohexyl)-4-(1H-imidazol-1-yl)butanamide]"
9,> 100 µM,"CC(NC(=O)c1ccc(O)nc1)C1CCN(C(=O)[C@H](C)N)CC1 (stereo partly drawn) [compound 378, N-(1-(1-(L-alanyl)piperidin-4-yl)ethyl)-6-hydroxynicotinamide]"
10,> 100 µM,"Cc1cnccc1C(=O)N[C@H]1CC[C@H](N)CC1 [compound 380, N-((1r,4r)-4-aminocyclohexyl)-3-methylisonicotinamide]"
11,> 100 µM,"NCCC(=O)N[C@H]1CC[C@H](NC(=O)c2cccc(N)n2)CC1 [compound 385, 6-amino-N-((1r,4r)-4-(3-aminopropanamido)cyclohexyl)picolinamide]"
12,> 100 µM,"Nc1cccc(C(=O)N[C@H]2CC[C@H](N)CC2)n1 [compound 386, 6-amino-N-((1r,4r)-4-aminocyclohexyl)picolinamide]"
13,> 100 µM,"NCCC(=O)N[C@H]1CC[C@H](NC(=O)c2ccc(N)nc2)CC1 [compound 388, 6-amino-N-((1r,4r)-4-(3-aminopropanamido)cyclohexyl)nicotinamide]"
14,> 100 µM,"Cc1cc(C(=O)NC(C)C2CCN(C(=O)[C@H](C)N)CC2)ccn1 (stereo partly drawn) [compound 392, N-(1-(1-(L-alanyl)piperidin-4-yl)ethyl)-2-methylisonicotinamide]"
15,> 100 µM,"Cc1cc(C(=O)N[C@H]2CC[C@H](NC(=O)CCN)CC2)ccn1 [compound 393, N-((1r,4r)-4-(3-aminopropanamido)cyclohexyl)-2-methylisonicotinamide]"
16,> 100 µM,"Cc1cc(C(=O)N[C@H]2CC[C@H](N)CC2)ccn1 [compound 394, N-((1r,4r)-4-aminocyclohexyl)-2-methylisonicotinamide]"
17,> 100 µM,"CC(NC(=O)c1nc2ccccc2s1)C1CCN(C(=O)[C@H](C)N)CC1 (stereo partly drawn) [compound 395, N-(1-(1-(L-alanyl)piperidin-4-yl)ethyl)benzo[d]thiazole-2-carboxamide]"
18,10.6 µM,"Cc1cnc(C(=O)NC(C)C2CCN(C(=O)[C@H](C)N)CC2)s1 (stereo partly drawn) [compound 396, N-(1-(1-(L-alanyl)piperidin-4-yl)ethyl)-5-methylthiazole-2-carboxamide]"
19,> 100 µM,"N[C@H]1CC[C@H](NC(=O)c2cccc3c2CC(=O)N3)CC1 [compound 400, N-((1r,4r)-4-aminocyclohexyl)-2-oxoindoline-4-carboxamide]"
20,> 100 µM,"Cc1cc(C)c(C(=O)N[C@H]2CC[C@H](NC(=O)CCN)CC2)c(=O)[nH]1 [compound 402, N-((1r,4r)-4-(3-aminopropanamido)cyclohexyl)-4,6-dimethyl-2-oxo-1,2-dihydropyridine-3-carboxamide]"

# More lines, now with the values behind:
row,SMILES,IC50
1,"COc1cncc(C(=O)N[C@H]2CC[C@H](NC(=O)CCN)CC2)n1 [compound 355, N-((1r,4r)-4-(3-aminopropanamido)cyclohexyl)-6-methoxypyrazine-2-carboxamide]",> 100 µM
2,"COc1cncc(C(=O)N[C@H]2CC[C@H](N)CC2)n1 [compound 356, N-((1r,4r)-4-aminocyclohexyl)-6-methoxypyrazine-2-carboxamide]",> 100 µM
3,"CC(NC(=O)c1ccc(N)cn1)C1CCN(C(=O)[C@H](C)N)CC1 (stereo partly drawn) [compound 357, N-(1-(1-(L-alanyl)piperidin-4-yl)ethyl)-5-aminopicolinamide]",> 100 µM
4,"N[C@H]1CC[C@H](NC(=O)c2ccc(Cl)cc2C(F)(F)F)CC1 [compound 358, N-((1r,4r)-4-aminocyclohexyl)-4-chloro-2-(trifluoromethyl)benzamide]",> 100 µM
5,"N[C@H]1CC[C@H](NC(=O)c2c[nH]c3ccccc23)CC1 [compound 360, N-((1r,4r)-4-aminocyclohexyl)-1H-indole-3-carboxamide]",> 100 µM
6,"NCCC(=O)N[C@H]1CC[C@H](NC(=O)c2ccc(O)cn2)CC1 [compound 361, N-((1r,4r)-4-(3-aminopropanamido)cyclohexyl)-5-hydroxypicolinamide]",> 100 µM
7,"NCCC(=O)N[C@H]1CC[C@H](NC(=O)Cc2cncnc2)CC1 [compound 364, 3-amino-N-((1r,4r)-4-(2-(pyrimidin-5-yl)acetamido)cyclohexyl)propanamide]",> 100 µM
8,"NCCC(=O)N[C@H]1CC[C@H](NC(=O)Cn2ccnc2)CC1 [compound 366, N-((1r,4r)-4-(2-(1H-imidazol-1-yl)acetamido)cyclohexyl)-3-aminopropanamide]",> 100 µM
9,"CC(NC(=O)c1ccc2cc[nH]c2c1)C1CCN(C(=O)[C@H](C)N)CC1 (stereo partly drawn) [compound 368, N-(1-(1-(L-alanyl)piperidin-4-yl)ethyl)-1H-indole-6-carboxamide]",12.3 µM
10,"COc1cccc2[nH]cc(C(=O)NC(C)C3CCN(C(=O)[C@H](C)N)CC3)c12 (stereo partly drawn) [compound 370, N-(1-(1-(L-alanyl)piperidin-4-yl)ethyl)-4-methoxy-1H-indole-3-carboxamide]",> 100 µM
11,"COc1cccc2[nH]cc(C(=O)N[C@H]3CC[C@H](N)CC3)c12 [compound 372, N-((1r,4r)-4-aminocyclohexyl)-4-methoxy-1H-indole-3-carboxamide]",> 100 µM
12,"NCCC(=O)N[C@H]1CC[C@H](NC(=O)c2cnc3ccccc3n2)CC1 [compound 373, N-((1r,4r)-4-(3-aminopropanamido)cyclohexyl)quinoxaline-2-carboxamide]",> 100 µM
13,"NCCC(=O)N[C@H]1CC[C@H](NC(=O)c2ccnc(O)c2)CC1 [compound 376, N-((1r,4r)-4-(3-aminopropanamido)cyclohexyl)-2-hydroxyisonicotinamide]",> 100 µM
14,"Cc1cnccc1C(=O)N[C@H]1CC[C@H](NC(=O)CCN)CC1 [compound 379, N-((1r,4r)-4-(3-aminopropanamido)cyclohexyl)-3-methylisonicotinamide]",> 100 µM
15,"Cc1ccncc1C(=O)N[C@H]1CC[C@H](NC(=O)CCN)CC1 [compound 381, N-((1r,4r)-4-(3-aminopropanamido)cyclohexyl)-4-methylnicotinamide]",> 100 µM
16,"Cc1ccc(C(=O)N[C@H]2CC[C@H](NC(=O)CCN)CC2)cn1 [compound 382, N-((1r,4r)-4-(3-aminopropanamido)cyclohexyl)-6-methylnicotinamide]",> 100 µM
17,"COc1cnc(C(=O)N[C@H]2CC[C@H](NC(=O)CCN)CC2)cn1 [compound 383, N-((1r,4r)-4-(3-aminopropanamido)cyclohexyl)-5-methoxypyrazine-2-carboxamide]",> 100 µM
18,"COc1cnc(C(=O)N[C@H]2CC[C@H](N)CC2)cn1 [compound 384, N-((1r,4r)-4-aminocyclohexyl)-5-methoxypyrazine-2-carboxamide]",> 100 µM
19,"CC(NC(=O)c1ccc(N)nc1)C1CCN(C(=O)[C@H](C)N)CC1 (stereo partly drawn) [compound 387, N-(1-(1-(L-alanyl)piperidin-4-yl)ethyl)-6-aminonicotinamide]",> 100 µM
20,"N[C@H]1CC[C@H](NC(=O)c2cccc(F)n2)CC1 [compound 389, N-((1r,4r)-4-aminocyclohexyl)-6-fluoropicolinamide]",> 100 µM
21,"NCCC(=O)N[C@H]1CC[C@H](NC(=O)c2ccncc2F)CC1 [compound 390, N-((1r,4r)-4-(3-aminopropanamido)cyclohexyl)-3-fluoroisonicotinamide]",> 100 µM
22,"NCCC(=O)N[C@H]1CC[C@H](NC(=O)c2c[nH]c3ccccc23)CC1 [compound 391, N-((1r,4r)-4-(3-aminopropanamido)cyclohexyl)-1H-indole-3-carboxamide]",> 100 µM
23,"Cc1cnc(C(=O)N[C@H]2CC[C@H](NC(=O)CCN)CC2)s1 [compound 397, N-((1r,4r)-4-(3-aminopropanamido)cyclohexyl)-5-methylthiazole-2-carboxamide]",27.4 µM
24,"Cc1cnc(C(=O)N[C@H]2CC[C@H](N)CC2)s1 [compound 398, N-((1r,4r)-4-aminocyclohexyl)-5-methylthiazole-2-carboxamide]",> 100 µM
25,"CC(NC(=O)c1cccc2c1CC(=O)N2)C1CCN(C(=O)[C@H](C)N)CC1 (stereo partly drawn) [compound 399, N-(1-(1-(L-alanyl)piperidin-4-yl)ethyl)-2-oxoindoline-4-carboxamide]",> 100 µM
26,"Cc1c(C(=O)N[C@H]2CC[C@H](NC(=O)CCN)CC2)nnn1-c1ccccc1 [compound 401, N-((1r,4r)-4-(3-aminopropanamido)cyclohexyl)-5-methyl-1-phenyl-1H-1,2,3-triazole-4-carboxamide]",> 100 µM
